# Results: patent US20250129430A1, “HIGH ATP-AFFINITY PROTEIN AS THERAPEUTIC TARGET FOR INTRACTABLE CANCER MOLECULAR SUBTYPES AND INHIBITOR THEREOF” (VeraVerse Co., Ltd., priority 2021, published 2025)
# Legend:
# Assay in all cases: Cell viability drug screen, 12-point dose-response AUC
# Type in all cases: cell-based, human
# FU97 = tested on: FU97; parameters: Average Area Under the Viability Curve (AUC), AUC norm value: scale not given here; conditions: FU97 cells; 72 hours
# Description: (§1) Cells cultured for cell-based drug assay were inoculated into a 96-well white optical plate (Corning) at 5×10^3 cells per well. After 24 hours after inoculation, a 2.5 MJT (primary screen) or a half-log 12-serial diluent (secondary screen) of the pharmacological compound contained in DMSO is added to the cells with a robot using a BioMek FXp liquid processor (Beckman) to add to the cells at 50 mM. The final drug concentration in the 5 ns range and the DMSO specification control (0.5%) were calculated. The cells were then further incubated at 37° C. in a 5% CO2 incubator for 72 hours prior to measuring cell viability using the extra-GLO assay kit (Promega). The luminescent properties were measured after 15 min incubation at room temperature using a plate stacker equipped with a plate stacker. The normalized viability for the DMSO-based control was measured to generate a cell line-specific 12-point dose-response curve for each pharmacological compound, and then the area under the curve (AUC) was calculated using a trapezoidal method.
# SNU1750 = SNU1750 cells (SEM subtype); 72 hours
# Description: (§2) An FDA-approved small-molecule pharmacological compound (#L1300) and an anticancer compound for research (#L2000) were purchased from Selecckchem and a 10 mM solution was prepared in DMSO. A total of 1,345 compounds were tested the cell viability of the seven EMT gastric cancer cell lines.
# as §1, with “method. […] The results of the repeated experiments were averaged to generate AUC values for each cell line for each compound.” for “method.”
# SNU638 = SNU638 cells; 72 hours
# Description: as §2
# as §1, with “method. […] The results of the repeated experiments were averaged to generate AUC values for each cell line for each compound.” for “method.”
# MKN74 = MKN74 cells; 72 hours
# Description: as §2
# as §1, with “method. […] The results of the repeated experiments were averaged to generate AUC values for each cell line for each compound.” for “method.”
# SNU16 = SNU16 cells; 72 hours
# Description: as §2
# as §1, with “method. […] The results of the repeated experiments were averaged to generate AUC values for each cell line for each compound.” for “method.”
# Hs746T = Hs746T cells (SEM subtype); 72 hours
# Description: as §2
# as §1, with “method. […] The results of the repeated experiments were averaged to generate AUC values for each cell line for each compound.” for “method.”
# NCC24 = NCC24 cells; 72 hours
# Description: as §2
# as §1, with “method. […] The results of the repeated experiments were averaged to generate AUC values for each cell line for each compound.” for “method.”
# SNU1 = SNU1 cells; 72 hours
# Description: as §2
# as §1, with “method. […] The results of the repeated experiments were averaged to generate AUC values for each cell line for each compound.” for “method.”
# KATO3 = KATO3 cells; 72 hours
# Description: as §2
# as §1, with “method. […] The results of the repeated experiments were averaged to generate AUC values for each cell line for each compound.” for “method.”
# NCC59 = NCC59 cells; 72 hours
# Description: as §2
# as §1, with “method. […] The results of the repeated experiments were averaged to generate AUC values for each cell line for each compound.” for “method.”
# AGS = AGS cells (non-SEM subtype); 72 hours
# Description: as §2
# as §1, with “method. […] The results of the repeated experiments were averaged to generate AUC values for each cell line for each compound.” for “method.”
# SNU216 = SNU216 cells (non-SEM subtype); 72 hours
# Description: as §2
# as §1, with “method. […] The results of the repeated experiments were averaged to generate AUC values for each cell line for each compound.” for “method.”
# MKN28 = MKN28 cells; 72 hours
# Description: as §2
# as §1, with “method. […] The results of the repeated experiments were averaged to generate AUC values for each cell line for each compound.” for “method.”
# SNU601 = SNU601 cells; 72 hours
# Description: as §2
# as §1, with “method. […] The results of the repeated experiments were averaged to generate AUC values for each cell line for each compound.” for “method.”
# YCC11 = YCC11 cells (SEM subtype); 72 hours
# Description: as §2
# as §1, with “method. […] The results of the repeated experiments were averaged to generate AUC values for each cell line for each compound.” for “method.”
# YCC2 = YCC2 cells; 72 hours
# Description: as §2
# as §1, with “method. […] The results of the repeated experiments were averaged to generate AUC values for each cell line for each compound.” for “method.”
# SNU620 = SNU620 cells; 72 hours
# Description: as §2
# as §1, with “method. […] The results of the repeated experiments were averaged to generate AUC values for each cell line for each compound.” for “method.”
# SNU668 = SNU668 cells (SEM subtype); 72 hours
# Description: as §2
# as §1, with “method. […] The results of the repeated experiments were averaged to generate AUC values for each cell line for each compound.” for “method.”
# MKN45 = MKN45 cells (non-SEM subtype); 72 hours
# Description: as §2
# as §1, with “method. […] The results of the repeated experiments were averaged to generate AUC values for each cell line for each compound.” for “method.”
# NCC20 = NCC20 cells; 72 hours
# Description: as §2
# as §1, with “method. […] The results of the repeated experiments were averaged to generate AUC values for each cell line for each compound.” for “method.”
# NCI_N87 = NCI_N87 cells; 72 hours
# Description: as §2
# as §1, with “method. […] The results of the repeated experiments were averaged to generate AUC values for each cell line for each compound.” for “method.”
# SK4 = SK4 cells (SEM subtype); 72 hours
# Description: as §2
# as §1, with “method. […] The results of the repeated experiments were averaged to generate AUC values for each cell line for each compound.” for “method.”
# SNU484 = SNU484 cells (SEM subtype); 72 hours
# Description: as §2
# as §1, with “method. […] The results of the repeated experiments were averaged to generate AUC values for each cell line for each compound.” for “method.”
# NCC19 = NCC19 cells; 72 hours
# Description: as §2
# as §1, with “method. […] The results of the repeated experiments were averaged to generate AUC values for each cell line for each compound.” for “method.”
# MKN1 = MKN1 cells; 72 hours
# Description: as §2
# as §1, with “method. […] The results of the repeated experiments were averaged to generate AUC values for each cell line for each compound.” for “method.”
# OCUM1 = OCUM1 cells; 72 hours
# Description: as §2
# as §1, with “method. […] The results of the repeated experiments were averaged to generate AUC values for each cell line for each compound.” for “method.”
# SNU719 = SNU719 cells; 72 hours
# Description: as §2
# as §1, with “method. […] The results of the repeated experiments were averaged to generate AUC values for each cell line for each compound.” for “method.”
# SNU1967 = SNU1967 cells; 72 hours
# Description: as §2
# as §1, with “method. […] The results of the repeated experiments were averaged to generate AUC values for each cell line for each compound.” for “method.”
# YCC3 = YCC3 cells; 72 hours
# Description: as §2
# as §1, with “method. […] The results of the repeated experiments were averaged to generate AUC values for each cell line for each compound.” for “method.”
smiles,measurement,setting,value
"CC(C)[C@H](C(=O)Nc1ccc(C(=O)NO)cc1)c1ccccc1 [AR-42 (HDAC-42), AR-42]","Average Area Under the Viability Curve (AUC), AUC norm value",FU97,−1.358
same,"Average Area Under the Viability Curve (AUC), AUC norm value",SNU1750,−1.401
same,"Average Area Under the Viability Curve (AUC), AUC norm value",SNU638,−0.7804
same,"Average Area Under the Viability Curve (AUC), AUC norm value",MKN74,0.1789
same,"Average Area Under the Viability Curve (AUC), AUC norm value",SNU16,−1.427
same,"Average Area Under the Viability Curve (AUC), AUC norm value",Hs746T,0.3259
same,"Average Area Under the Viability Curve (AUC), AUC norm value",NCC24,−0.6217
same,"Average Area Under the Viability Curve (AUC), AUC norm value",SNU1,−0.3147
same,"Average Area Under the Viability Curve (AUC), AUC norm value",KATO3,0.7324
same,"Average Area Under the Viability Curve (AUC), AUC norm value",NCC59,2.102
same,"Average Area Under the Viability Curve (AUC), AUC norm value",AGS,−1.186
same,"Average Area Under the Viability Curve (AUC), AUC norm value",SNU216,0
same,"Average Area Under the Viability Curve (AUC), AUC norm value",MKN28,0.07777
same,"Average Area Under the Viability Curve (AUC), AUC norm value",SNU601,1.874
same,"Average Area Under the Viability Curve (AUC), AUC norm value",YCC11,−0.3298
same,"Average Area Under the Viability Curve (AUC), AUC norm value",YCC2,−0.00569
same,"Average Area Under the Viability Curve (AUC), AUC norm value",SNU620,−1.197
same,"Average Area Under the Viability Curve (AUC), AUC norm value",SNU668,0.2515
same,"Average Area Under the Viability Curve (AUC), AUC norm value",MKN45,1.962
same,"Average Area Under the Viability Curve (AUC), AUC norm value",NCC20,0.06736
same,"Average Area Under the Viability Curve (AUC), AUC norm value",NCI_N87,−0.1344
same,"Average Area Under the Viability Curve (AUC), AUC norm value",SK4,−0.3617
same,"Average Area Under the Viability Curve (AUC), AUC norm value",SNU484,0.127
same,"Average Area Under the Viability Curve (AUC), AUC norm value",NCC19,1.026
same,"Average Area Under the Viability Curve (AUC), AUC norm value",MKN1,0.9532
same,"Average Area Under the Viability Curve (AUC), AUC norm value",OCUM1,−0.3936
same,"Average Area Under the Viability Curve (AUC), AUC norm value",SNU719,2.169
same,"Average Area Under the Viability Curve (AUC), AUC norm value",SNU1967,−0.9137
same,"Average Area Under the Viability Curve (AUC), AUC norm value",YCC3,0.6875
